Tests used:
HER2 = molecular target: T1, HER2 (Homo sapiens, UniProt P04626); assay: Inhibition of HER2 Phosphorylation in Calu3 Tumor Cell Line; assay type: cell-based; settings: Calu3 cells; for percentage of inhibition of HER2 phosphorylation compared with the reference compound: comparison with reference compound (Example 4, p. 88, WO 01/77107); for inhibition at 1 µM: Calu-3, read-out: Percent inhibition of HER2-phosphorylation
T1 construct: endogenous in cells; host or cells: Calu3 tumor cell line
T1 sequence (P04626 23-1255): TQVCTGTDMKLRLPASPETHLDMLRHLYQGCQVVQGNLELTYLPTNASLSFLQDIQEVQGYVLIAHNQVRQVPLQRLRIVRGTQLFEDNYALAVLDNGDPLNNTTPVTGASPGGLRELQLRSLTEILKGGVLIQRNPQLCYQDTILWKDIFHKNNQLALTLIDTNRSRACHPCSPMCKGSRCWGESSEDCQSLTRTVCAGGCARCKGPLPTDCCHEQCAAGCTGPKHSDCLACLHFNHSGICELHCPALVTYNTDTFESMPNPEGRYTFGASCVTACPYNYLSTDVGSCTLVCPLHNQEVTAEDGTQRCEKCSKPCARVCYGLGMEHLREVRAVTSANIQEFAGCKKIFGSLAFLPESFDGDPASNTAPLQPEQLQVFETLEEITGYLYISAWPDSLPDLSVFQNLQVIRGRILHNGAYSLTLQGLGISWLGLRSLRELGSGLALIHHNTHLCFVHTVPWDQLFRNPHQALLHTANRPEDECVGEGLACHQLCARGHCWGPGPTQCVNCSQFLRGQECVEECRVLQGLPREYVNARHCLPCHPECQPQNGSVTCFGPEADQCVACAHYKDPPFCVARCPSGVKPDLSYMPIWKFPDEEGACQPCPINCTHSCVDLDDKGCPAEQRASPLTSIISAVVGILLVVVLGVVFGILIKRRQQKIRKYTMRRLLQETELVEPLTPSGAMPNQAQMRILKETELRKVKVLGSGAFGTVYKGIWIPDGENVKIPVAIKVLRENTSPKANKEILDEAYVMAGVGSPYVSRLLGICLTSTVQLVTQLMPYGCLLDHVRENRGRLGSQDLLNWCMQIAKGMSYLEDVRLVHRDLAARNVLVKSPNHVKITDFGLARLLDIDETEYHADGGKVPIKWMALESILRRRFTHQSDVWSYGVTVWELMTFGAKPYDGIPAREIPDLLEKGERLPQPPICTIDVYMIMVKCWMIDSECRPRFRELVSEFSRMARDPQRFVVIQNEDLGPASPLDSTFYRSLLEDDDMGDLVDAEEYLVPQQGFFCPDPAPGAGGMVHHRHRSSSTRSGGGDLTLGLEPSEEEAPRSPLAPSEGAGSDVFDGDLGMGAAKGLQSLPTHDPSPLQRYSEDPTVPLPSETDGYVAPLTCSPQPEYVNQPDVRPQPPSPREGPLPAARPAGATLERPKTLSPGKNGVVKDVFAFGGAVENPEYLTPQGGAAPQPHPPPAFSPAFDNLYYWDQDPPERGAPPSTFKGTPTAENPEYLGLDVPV
Method: Inhibition of HER2 Phosphorylation in Calu3 Tumor Cell Line
2×10^5 Calu3 cells per well were plated in a 12-well plate. After 4 days cells were starved for 16 h in DMEM (Dulbecco's Modified Eagle Medium)/0.5% FCS/1% glutamine. During this time cells were incubated with […] of a compound according to this invention. Afterwards cells were lysed in lyses buffer containing 1% Triton, 10% glycerol, 1 mM EGTA, 1.5 mM MgCl2, 150 mM NaCl, 50 mM Hepes pH 7.5, 1 mM PMSF, 10 μg/mL aprotinin and […] orthovanadate. Cell lysates were analyzed on a SDS PAGE and after transfer to a nitrocellulose membrane detected with a rabbit antibody specifically recognizing the pY 1248 in HER2 (Cell Signaling). After incubation with an anti rabbit antibody coupled to POD (Peroxidase from Biorad, Munich, Germany) signals were detected by chemiluminescence (ECL, Amersham). Inhibition of HER2 phosphorylation is calculated as percentage of the DMSO treated control. This percentage is calculated according to the following formula: Inhibition in %=100−(Phosphorylated-HER2-Signal of Test Sample*100/Phosphorylated-HER2-Signal DMSO-control).

[1] = compound concentration 1 μM, 16 h incubation, pY 1248 in HER2, percentage of the DMSO treated control

FS(F)(F)(F)(F)c1ccc(C=Cc2nc(COc3ccc(CCCCn4ccnc4)cc3)co2)cc1 [example 1, 4-[4-(4-Imidazol-1-yl-butyl)-phenoxymethyl]-2-[2-(4-pentafluorosulfanyl-phenyl)-vinyl]-oxazole]
percentage of inhibition of HER2 phosphorylation compared with the reference compound (HER2): higher percentage of inhibition of phosphorylation
inhibition at 1 µM (HER2; [1]): 87.5%

FS(F)(F)(F)(F)c1ccc(/C=C/c2nc(COc3ccc(CCCCn4ccnn4)cc3)co2)cc1 [example 4, 1-[4-(4-{2-[(E)-2-(-4-Pentafluorosulfanyl-phenyl)-vinyl]-oxazol-4-ylmethoxy}-phenyl)-butyl]-1H-[1,2,3]triazole]
percentage of inhibition of HER2 phosphorylation compared with the reference compound (HER2): higher percentage of inhibition of phosphorylation
inhibition at 1 µM (HER2; [1]): 86.1%

FS(F)(F)(F)(F)c1ccc(C=Cc2nc(COc3ccc(COCCn4ccnn4)cc3)co2)cc1 [example 9, 1-[2-(4-{2-[-4-(Pentafluorosulfanyl-phenyl)-vinyl]-oxazol-4-ylmethoxy}-benzyloxy)-ethyl]-1H-[1,2,3]-triazole]
Percent inhibition of HER2-phosphorylation (HER2; [1]): 52.9%
percentage of inhibition of HER2 phosphorylation compared with the reference compound (HER2): higher percentage of inhibition of phosphorylation

O=S(=O)(CCn1ccnn1)Cc1ccc(OCc2coc(/C=C/c3ccc(S(F)(F)(F)(F)F)cc3)n2)cc1 [example 11, 1-[2-(4-{2-[(E)-2-(4-Pentafluorosulfanyl-phenyl)-vinyl]-oxazol-4-ylmethoxy}-phenylmethanesulfonyl)-ethyl]-1H-[1,2,3]triazole]
percentage of inhibition of HER2 phosphorylation compared with the reference compound (HER2): higher percentage of inhibition of phosphorylation
inhibition at 1 µM (HER2; [1]): 59.7%

FS(F)(F)(F)(F)c1ccc(C=Cc2nc(COc3ccc(C=CCCn4ccnn4)cc3)co2)cc1 [example 12, 1-[4-(4-{2-[2-(4-Pentafluorosulfanyl-phenyl)-vinyl]-oxazol-4-ylmethoxy}-phenyl)-but-3-enyl]-1H-[1,2,3]triazole]
percentage of inhibition of HER2 phosphorylation compared with the reference compound (HER2): higher percentage of inhibition of phosphorylation
inhibition at 1 µM (HER2; [1]): 68.8%

O=S(=O)(NCCn1ccnn1)c1ccc(OCc2coc(C=Cc3ccc(S(F)(F)(F)(F)F)cc3)n2)cc1 [example 14, N-(2-[1,2,3]Triazol-1-yl-ethyl)-4-{2-[2-(4-pentafluorosulfanyl-phenyl)-vinyl]-oxazol-4-ylmethoxy}-benzenesulfonamide]
melting point: 170 to 172 °C
percentage of inhibition of HER2 phosphorylation compared with the reference compound (HER2): higher percentage of inhibition of phosphorylation
inhibition at 1 µM (HER2; [1]): 71.7%

FS(F)(F)(F)(F)c1ccc(C=Cc2nc(COc3ccc(OCCCn4ccnn4)cc3)co2)cc1 [example 15, 1-[3-(4-{2-[2-(4-Pentafluorosulfanyl-phenyl)-vinyl]-oxazol-4-ylmethoxy}-phenoxy)-propyl]-1H-[1,2,3]triazole]
percentage of inhibition of HER2 phosphorylation compared with the reference compound (HER2): higher percentage of inhibition of phosphorylation
inhibition at 1 µM (HER2; [1]): 97.5%

FS(F)(F)(F)(F)c1ccc(C=Cc2nc(CNc3ccc(CCCCn4ccnn4)cc3)co2)cc1 [example 16, [4-(4-[1,2,3]Triazol-1-yl-butyl)-phenyl]-{2-[2-(4-pentafluorosulfanyl-phenyl)-vinyl]-oxazol-4-ylmethyl}-amine]
percentage of inhibition of HER2 phosphorylation compared with the reference compound (HER2): higher percentage of inhibition of phosphorylation
inhibition at 1 µM (HER2; [1]): 91.9%
